The source of these data is PubChem BioAssay (NCI).

Common to all, as to experiment: DTP human tumour cell line panel, 48 h
In assay [1] the test system is NCI-H226 lung.
In assay [2] the test system is SNB-19 CNS.
Assay [3] deals with CAKI-1 renal.
The test system of assay [4] is SNB-75 CNS.
Assay [5] relates to TK-10 renal.
Assay [6] relates to SF-268 CNS.
Assay [7] relates to SF-295 CNS.
The test system of assay [8] is K-562 leukemia.

Structures are written as SMILES. Several values for one entry are separate records, joined by “and”; a condition that tells them apart may be missing. Equal values may be shown once.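 Each compound was tested at five concentrations against cells in 96-well plates for 48 hours. The concentration for 50% growth inhibition is given as GI50. The concentration for full growth arrest is given as TGI.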 A value given as a limit tells only on which side of the number the result lay.

For orientation: GI50 means the concentration at which growth is held to half of that of the control. The term TGI denotes the concentration giving total growth inhibition. A low value points to greater sensitivity of the cells. Regarding `COc1cc(-c2cc(-c3cccs3)c(C#N)c(N3CCOCC3)n2)cc(OC)c1OC`, the GI50 in assay [1] was 20.5 µM; in assay [2], above 76.1 µM; in assay [3], above 21.6 µM; in assay [4], 10 µM; in assay [5], above 39 µM; in assay [6], above 67.6 µM. The GI50 was 2.87 µM in assay [7] and 3.8 µM in assay [8]. Moreover, the TGI is above 100 µM in assay [1]; above 100 µM in assay [2]; above 100 µM in assay [3]; above 63 µM in assay [4]; above 94.1 µM in assay [5]; above 100 µM in assay [6]. The TGI in assay [7] is 9.01 µM; in assay [8], above 100 µM.
Turning to `Cc1cc2c(C(=O)NCC#N)cccc2n1-c1nc2c(c(NCc3ccccc3)n1)CCCC2`, the GI50 was 0.293 µM in assay [1]; 0.499 µM in assay [2]; 0.666 µM in assay [3]; 0.345 µM in assay [4]; 0.331 µM in assay [5]; 0.34 µM in assay [6]. Besides, the GI50 is 0.191 µM in assay [7] and 0.372 µM in assay [8]. For the same compound, the TGI is 0.748 µM in assay [1]; 2.91 µM in assay [2]; above 100 µM in assay [3]; 1.74 µM in assay [4]; 0.976 µM in assay [5]; 1.35 µM in assay [6]. Further, the figures for the TGI in assay [7] and in assay [8] were 0.444 µM and above 100 µM, respectively.
For the compound `C=C1C[C@@H](O)[C@@H](Br)C(C)(C)[C@]12CCC(C)(Br)C(Cl)C2` (some centres undefined), the GI50 in assay [1] was 15.6 µM; in assay [2], 17.6 µM; in assay [3], 18.3 µM; in assay [4], 18.5 µM; in assay [5] it was 15.7 µM; in assay [6], 19.1 µM. Moreover, the GI50 in assay [7] is 17.9 µM; in assay [8] it was 19.2 µM. Further, the TGI in assay [1] was 50 µM and 29.9 µM; in assay [2], > 50 µM and 33.2 µM; in assay [3], > 50 µM and 37.2 µM; in assay [4] it was > 50 µM and 34.6 µM; in assay [5], > 50 µM and 29.8 µM; in assay [6], > 50 µM and 35.8 µM. For the same compound, the TGI in assay [7] was > 50 µM and 34.9 µM; in assay [8] it was > 50 µM and 42.4 µM.
With `COc1ccc2nc3cc(Cl)ccc3c(NCCNCC(O)CO)c2c1` (centres undefined), the GI50 was 2.18 µM in assay [1]; 1.29 µM in assay [2]; 5.79 µM in assay [3]; 1.14 µM in assay [4]; 3.11 µM in assay [5]; 1.03 µM in assay [6]. In addition, the GI50 was 2.33 µM in assay [7] and 0.807 µM in assay [8]. The TGI in assay [1] was 12.1 µM; in assay [2], 12.6 µM; in assay [3], 20.3 µM; in assay [4] it was 11.1 µM; in assay [5] it was 12.4 µM; in assay [6] it was 13.1 µM. The TGI in assay [7] was determined as 12.3 µM; in assay [8], 10.2 µM.
On to `Nc1nc(=S)c2ncn(C3OC(CO)C(O)C3O)c2[nH]1` (centres undefined), for which the GI50 in assay [1] was 3.5 µM; in assay [2] it was 33.1 µM; in assay [3] it was 0.703 µM; in assay [4], 0.688 µM; in assay [5], 0.633 µM; in assay [6], 0.755 µM. In addition, the GI50 in assay [7] is 0.531 µM; in assay [8], 0.49 µM. Also, the TGI is above 100 µM in assay [1]; above 100 µM in assay [2]; 5.88 µM in assay [3]; above 100 µM in assay [4]; above 64.8 µM in assay [5]; above 100 µM in assay [6]. Moreover, the TGI in assay [7] is above 100 µM; in assay [8], above 61.1 µM.
For `COC(=O)CC1C2(C)C3=C(C)C(c4ccoc4)CC3OC2C2OC(=O)C3(C)C=CC(=O)C1(C)C23` (centres undefined), the TGI in assay [1] is 7.68 µM; in assay [2] it was 7.1 µM; in assay [3], 2.15 µM; in assay [4], 12.3 µM; in assay [5] it was 5.94 µM; in assay [6], 7.62 µM. Further, the values for the TGI in assay [7] and in assay [8] were 13 µM and 4.82 µM, respectively.
With `CCOC(=O)Nc1ccc2nc(N3CCCCCC3)sc2c1`, the GI50 in assay [1] was 12.3 µM; in assay [2], 2.84 µM; in assay [3], 2.2 µM; in assay [4], 2.07 µM; in assay [5], 5.07 µM; in assay [6], 8.25 µM. The GI50 is 0.856 µM in assay [7] and 0.501 µM in assay [8]. The TGI in assay [1] is above 68 µM; in assay [2], above 100 µM; in assay [3] it was above 59.5 µM; in assay [4] it was above 31.4 µM; in assay [5], above 91 µM; in assay [6] it was above 100 µM. The TGI is 11.4 µM in assay [7] and above 72.6 µM in assay [8].
For the compound `COc1ccc(/C(=C/c2ccc3ccccc3c2)c2nn[nH]n2)cc1OC`, the GI50 is above 100 µM in assay [1]; 7.84 µM in assay [2]; 2.24 µM in assay [3]; 2.51 µM in assay [4]; 18.5 µM in assay [5]; 6.55 µM in assay [6]. In addition, the GI50 in assay [7] was 1.51 µM; in assay [8], 0.678 µM. Moreover, the TGI in assay [1], in assay [2], in assay [3], in assay [4], in assay [5] and in assay [6] was above 100 µM each time. Besides, the TGI was 51.1 µM in assay [7] and above 100 µM in assay [8].
In the case of `O=C(Nc1ccn(C2CC(I)C(COC(c3ccccc3)(c3ccccc3)c3ccccc3)O2)c(=O)n1)c1ccccc1` (centres undefined), the TGI amounted to 12.8 µM in assay [1]; 21.5 µM in assay [2]; 21.5 µM in assay [3]; 9.61 µM in assay [4]; 21.5 µM in assay [5]; 17.9 µM in assay [6]. Moreover, the TGI in assay [7] and in assay [8] was 21.5 µM each time.
Take `COc1ccc(C2CC(c3ccccc3)=NN2C(=O)c2cc(OC)c(OC)c(OC)c2)cc1O` (centres undefined): the GI50 in assay [1] is 1.29 µM; in assay [2], 0.645 µM; in assay [3], 0.925 µM; in assay [4], 0.422 µM; in assay [5] it was 14.7 µM; in assay [6] it was 0.902 µM. The figures for the GI50 in assay [7] and in assay [8] were 0.366 µM and 0.297 µM, respectively. The TGI is 21.3 µM in assay [1]; above 100 µM in assay [2]; above 100 µM in assay [3]; above 100 µM in assay [4]; above 100 µM in assay [5]; above 39.8 µM in assay [6]. Also, the TGI in assay [7] was above 38.5 µM; in assay [8] it was 27.1 µM.
